Measured values taken from patent publication US20210322651A1, “SUPPRESSION OF NEOINTIMAL FORMATION FOLLOWING VASCULAR SURGERU USING CDK8 INHIBITORS” (Senex Biotechnology, Inc., priority 2014, published 2021).

What was measured:
[1] = tested on: jugular vein isografts; experiment: Neointimal formation in jugular vein isografts (cuff model; H&E and SMA staining, morphological analysis); format: in vivo, C57BL/6J mice
Protocol: Male C57BL/6J mice were purchased from Vital River Laboratory Animal Technology Co. Ltd, Beijing, China, and housed under a 12:12 h light-dark cycle and given free access to food and water. All animal experiments were performed according to National Institutes of Health Guidelines for the Care and Use of Laboratory Animals and approved by the Institutional Animal Care and Usage Committees at Shandong University and the University of South Carolina, USA. The jugular vein transplantation was performed using different male C57BL/6J mice as donors and recipients. Briefly, 12-wk-old male C57BL/6J mice were anesthetized with pentobarbital sodium (50 mg/kg body weight, i.p.). The operation was performed under a dissecting microscope (SZ2-ILST, Olympus Corporation, Tokyo, Japan). The right common carotid artery of a male C57BL/6J mouse was mobilized and divided. A 1-mm cuff with a 1-mm handle (0.65 mm in diameter outside and 0.5 mm inside, F 800/200/100/200, Portex Ltd) was placed on both ends of the artery, and the ends were reverted over the cuff and ligated with an 8-0 silk ligature (130715, 130715, LingQiao). External jugular vein (1 cm) from a donor mouse was harvested and washed with saline solution, and grafted between the 2 ends of the carotid artery without changing the direction of blood flow. The ischemia time of vein segments was less than 15 min. The results are shown in Examples 7-9.
Mice at 0, 1, 3, 7, 14, 21 and 42 days after transplantation (four randomly chosen mice at each time point) were anesthetized with pentobarbital sodium (50 mg/kg body weight, i.p.) and euthanized by exsanguination. […]
From the proximal end, the last section with the cuff tube was counted as #0. […]
(§1) Tissue sections were subjected to hematoxylin and eosin (H&E) or immunofluorescence staining as previously described^41. […] Fluorescent images were acquired by Nikon Eclipse Ti or UltraVIEW®VOX confocal microscope and analyzed with the Volocity software (PerkinElmer, Waltham, Mass., USA). […]

[2] = tested on: resident VSCs (Sca-1+, NFM+, Sox17+ cells) in jugular vein isografts; experiment: Immunofluorescence staining of VSC and SMC markers (Sca-1, Ki67, SMA, NFM, Sox17) in jugular vein isografts after drug treatment; format: in vivo, C57BL/6J mice
Protocol: Male C57BL/6J mice were purchased from Vital River Laboratory Animal Technology Co. Ltd, Beijing, China, and housed under a 12:12 h light-dark cycle and given free access to food and water. All animal experiments were performed according to National Institutes of Health Guidelines for the Care and Use of Laboratory Animals and approved by the Institutional Animal Care and Usage Committees at Shandong University and the University of South Carolina, USA. The jugular vein transplantation was performed using different male C57BL/6J mice as donors and recipients. Briefly, 12-wk-old male C57BL/6J mice were anesthetized with pentobarbital sodium (50 mg/kg body weight, i.p.). The operation was performed under a dissecting microscope (SZ2-ILST, Olympus Corporation, Tokyo, Japan). The right common carotid artery of a male C57BL/6J mouse was mobilized and divided. […]
as §1

[3] = tested on: Sca-1+ VSCs; experiment: Sca-1+ cell growth in stem cell growth medium (daily cell count for 8 days; [3H]thymidine uptake); format: cell-based, mouse
Protocol: Aortic adventitial Sca-1^+ cells were isolated and cultured as previously described^24. Briefly, the aortic arch and root together with a proportion of the heart from male 8-wk-old C57BL/6J mice were removed. Under a dissection microscope, adventitial tissues were carefully harvested. The adventitial tissues were cut into pieces (about 0.5 mm^3) and explanted onto a 3.5 cm dish in a CO2 incubator at 37° C. for 2 h. The stem cell growth medium (CellGro SCGM, CellGenix, Germany) containing 10% FBS (Gibco, USA), 10 ng/ml leukemia inhibitory factor (Lif) (Millipore, Temecula, Calif., USA) and 0.1 mmol/L 2-mercaptoethanol (Invitrogen, USA) was added and incubated for 5-7 days. Medium was changed every 2 days. […] The purity and viability of isolated Sca-1^+ cells were evaluated by immunostaining and trypan blue exclusion, respectively. […]
The P5 Sca-1^+ VSCs or P32 RASMCs were serum-starved for 24 h, and then cultured with full stem cell or regular growth medium with or without simvastatin for 24 h. […] The radioactivity was measured as previously described^41.
P7 Sca-1^+ VSCs (4×10^4/well) were seeded in stem cell medium (SCGM+10% FBS+10 ng/ml Lif+0.1 mmol/L 2-mercaptoethanol) with or without simvastatin (3 μmol/L) or Senexin A (2.5 μmol/L) in 6-well plates. […] The number of cells was counted daily for 8 days.

[4] = tested on: rat aortic SMCs (RASMCs); experiment: RASMC proliferation ([3H]thymidine uptake); format: cell-based
Protocol: Rat aortic SMCs (RASMCs) were isolated from the thoracic aorta and cultured as described elsewhere^40. Enzymatically isolated SMCs from adult male Wistar rats were cultured in high glucose (4.5 g/L) Dulbecco's modified Eagle's medium (DMEM) (Cat#: 11995, Invitrogen, Grand Island, N.Y., USA) with 10% FBS (Invitrogen) in a CO2 incubator at 37° C. Subculture was performed when the cells were grown to the 70˜80% confluent state. We used the RASMCs at passage (P) 32 to do the [^3H]thymidine uptake assay. The P5 Sca-1^+ VSCs or P32 RASMCs were serum-starved for 24 h, and then cultured with full stem cell or regular growth medium with or without simvastatin for 24 h. [^3H]thymidine (1 μCi/ml) were added during the last 4 h of culture. The radioactivity was measured as previously described^41. […] Serum-starved RASMCs at passage 32 were treated with or without 10% FBS and Senexin (Senx A, 2.5 μM) for 24 h. n=4, *p<0.05 vs. control (−) in the same group.

[5] = Senexin B, concentration not given

SMILES	neointimal formation in vein isografts ([1]; Senexin A (3 μmon) peri-vascular in Pluronic F-127 gel immediately after transplantation, 4 weeks)	duration of inhibitory effect on neointimal formation in vein grafts ([1]; short-term peri-vascular Senexin A, after transplantation)	Sca-1+ cell differentiation into SMCs ([2]; local Senexin A, 7 days)	Sca-1+ cell proliferation ([3]; Senexin A 2.5 μM, growth curve 8 days)	rat aortic SMC (RASMC) growth ([4]; Senexin A 2.5 μM, 24 h, 10% FBS, passage 32)	neointimal formation in vein isografts ([1]; Senexin B 20 mg/kg/d intragastric, started 3 days prior to transplantation, 4 wk)	Sca-1+ cell differentiation into SMCs ([2]; Senexin B 20 mg/kg/d intragastric from 3 days prior, 14 and 28 days)	Sca-1+ cell growth [3, 5]	SMC proliferation [4, 5]
N#Cc1ccc2ncnc(NCCc3ccccc3)c2c1 [Senexin A]	suppressed neointimal formation	100 days	inhibited	suppressed	without affecting	–	–	–	–
CN1CCN(C(=O)c2ccc3cc(CCNc4ncnc5ccc(C#N)cc45)ccc3c2)CC1 [Senexin B]	–	–	–	–	–	suppressed neointimal formation	inhibited	inhibited	had no impact
